Results: ChEMBL document CHEMBL2346635, “6-Oxo and 6-thio purine analogs as antimycobacterial agents” (Bioorg Med Chem, 2013)
In brackets after ≈: the same amount, converted by molar mass.

Tests used:
Format in all cases: functional
[1] = system: Mycobacterium tuberculosis; assay: Antimycobacterial activity against ethambutol-resistant Mycobacterium tuberculosis assessed as growth inhibition by Alamar blue assay
[2] = system: Mycobacterium tuberculosis; assay: Antimycobacterial activity against ciprofloxacin-resistant Mycobacterium tuberculosis assessed as growth inhibition by Alamar blue assay
[3] = system: Mycobacterium tuberculosis; assay: Antimycobacterial activity against rifampin-resistant Mycobacterium tuberculosis assessed as growth inhibition by Alamar blue assay
[4] = system: Mycobacterium tuberculosis; assay: Antimycobacterial activity against thiacetazone-resistant Mycobacterium tuberculosis assessed as growth inhibition by Alamar blue assay
[5] = system: Mycobacterium tuberculosis; assay: Antimycobacterial activity against isoniazid-resistant Mycobacterium tuberculosis assessed as growth inhibition by Alamar blue assay
[6] = system: Mycobacterium tuberculosis; assay: Antimycobacterial activity against kanamycin-resistant Mycobacterium tuberculosis assessed as growth inhibition by Alamar blue assay

SMILES	MIC90 [1] [µg/mL]	MIC90 [2] [µg/mL]	MIC90 [3] [µg/mL]	MIC90 [4] [µg/mL]	MIC90 [5] [µg/mL]	MIC90 [6] [µg/mL]
CCCCCCCCCCCCSc1ncnc2c1ncn2CC(=O)OCC	3.13 (≈ 7.7 µM)	1.56 (≈ 3.84 µM)	3.13 (≈ 7.7 µM)	3.13 (≈ 7.7 µM)	1.56 (≈ 3.84 µM)	–
CCCCCCCCCCSc1ncnc2c1ncn2CC(=O)OCC	6.25 (≈ 16.5 µM)	12.5 (≈ 33 µM)	6.25 (≈ 16.5 µM)	–	12.5 (≈ 33 µM)	6.25 (≈ 16.5 µM)
